Results as given in patent US20240279278A1, “NMU RECEPTOR 2 AGONISTS” (Boehringer Ingelheim International GmbH, priority 2023, published 2024).
Residues, ends and D or L forms follow the SMILES beside them.

What was measured:
[1] = Effect on acute food intake in normal NMRI mice; type: in vivo; conditions: male NMRI mice, single subcutaneous dose 100 nmol/kg, normalized to vehicle group
Procedure: Example 9: Pharmacodynamics Effect on Acute Food Intake in Normal NMRI Mice
Male NMRI mice were obtained from Charles River (Charles River, Research Models & Services Germany GmbH) or from JanVier (JanVier Labs, France) at 3 weeks of age. The animals were group housed 4 mice pr. cage under a 12/12 hours dark-light cycle, light off at 3 pm. Room temperature was controlled to 21° C.±1° C., with 60%±20% humidity. Animals had ad libitum access to regular rodent chow (KLIBA Nafag 3430 or Altromin 1324, Brogaarden, Denmark) and tap water. Animals were transferred at 6 weeks of age, 5-7 days before the start of the study to a real-time food intake monitoring system, HM-2 system (MBRose, Denmark), to allow acclimatization to experimental conditions. As the animals were uniquely identified with microchips, each individual animal was identified by its microchip upon entry and exit from the food channel. Randomization of the mice for each study group (n=8-11) was based on body weight measured the day before the start of the study. A vehicle-treated (50 mM acetate buffer pH 7.4 with 3.5% mannitol) group was included in each experiment. Six hours before the start of the night phase animals were fasted. One hour before the dark phase animals were dosed once subcutaneously with test peptide. Food intake was reported hourly for a period of 24 hours. The food intake of the treated groups was normalized (in %) to the average food intake of the group receiving vehicle (table 10). Statistical significance was evaluated using One-way analysis of variance with Bonferroni's multiple comparison test. P<0.05 was considered statistically significant.

[2] = biological target: T1, human NMUR2 receptor (Homo sapiens, UniProt Q9GZQ4); assay: Radioligand binding competition assay (RLB), human NMUR2 receptor binding (SPA, [125I]-Neuromedin U-25); parameters: host or cells: CHO-K1; conditions: CHO-K1 hNMUR2 cell membranes, 4 hours at RT
T1 sequence (Q9GZQ4 whole entry): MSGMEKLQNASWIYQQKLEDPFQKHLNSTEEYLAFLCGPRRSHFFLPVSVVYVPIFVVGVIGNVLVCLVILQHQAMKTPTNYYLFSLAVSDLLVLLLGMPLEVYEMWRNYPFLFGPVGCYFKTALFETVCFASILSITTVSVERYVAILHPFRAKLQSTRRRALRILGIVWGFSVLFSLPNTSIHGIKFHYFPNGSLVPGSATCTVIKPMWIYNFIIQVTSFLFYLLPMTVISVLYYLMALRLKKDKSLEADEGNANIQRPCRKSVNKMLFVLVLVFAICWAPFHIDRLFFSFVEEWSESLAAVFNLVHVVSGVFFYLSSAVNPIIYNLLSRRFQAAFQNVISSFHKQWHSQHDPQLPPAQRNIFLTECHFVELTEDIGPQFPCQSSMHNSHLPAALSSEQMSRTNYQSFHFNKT
Excerpt: Example 1: Radioligand Binding Competition Assay (RLB) Human NMUR2 Receptor Binding
The test is based on membranes prepared from a Human NMUR2/Apoaequorin Stable Cell Line (Creative Biogene, Cat. No. CSC-RG1309).
Cell Line Description: CHO-NMUR2 cell line is clonally derived from a CHO-K1 cell line, which has been transfected with a bicistronic expression plasmid containing the sequence coding for the human neuromedin U receptor 2 (AF242874.1). MOSAIC-ID: CL16550616.
Membrane preparation: Cells were broken by nitrogen cavitation (900 psi, 1 hour). Intact cells were removed by centrifugation (400 rcf (relative centrifugal force), 10 minutes, 4° C.) before the crude membrane fraction was collected by ultracentrifugation (20.000 rcf, 1 hour, 4° C.).
2) Human NMUR2 Receptor Binding Assay (Radioligand: [125I]-Neuromedin U-25 (Human))
In this Scintillation Proximity Assay (SPA) design, the membranes immobilize directly to the PVT-WGA-PEI type A beads (polyethyleneimine treated polyvinyltoluene beads coupled to wheatgerm agglutinin, Perkin Elmer) via interactions of wheat germ agglutinate and glycosylated membrane structures. Thereby the radioactively la-belled ligand, bound to NMUR2 receptors on the membrane, comes in close proximity to the solid scintillator of the PVT bead. Radioactive human neuromedin U-25 then stimulates the scintillant to emit light. In contrast, radioligand not bound to the receptor is too distant from the bead to elicit a signal.
For the Scintillation Proximity Assay the CHO-K1 hNMUR2 cell membranes and SPA-beads are diluted to concentrations, which assure a robust signal to background ratio. The SPA incubation buffer consists of 25 mM Hepes (pH=7.0), 5 mM MgCl2, 1 mM CaCl2, 10 ug/mL Saponine and 0.1% bovine serum albumin and is used for all dilutions.
Final assay setup in 96-well plate: 20 μL of 10× test compound dilutions+40 μL of 5× [125l]-Neuromedin U-25 (1× approx. 30 pM; 2000 μCi/mmol)+60 μL membrane dilution (approx. 2.5 μg membrane protein)+80 μL SPA bead dilution (0.75 mg).
The assay is incubated for 4 hours at RT, including controls for specific binding where no displacer is added and non-specific binding by adding unlabeled hNMU-25 at 100 nM. Bound radioactivity is determined by scintillation counting (MicroBeta Trilux 1450, Perkin Elmer, detection of 125I decay). […] The system assumes one binding site with no relevant radioligand depletion (<10%) and that the binding is reversible and at equilibrium.

[3] = biological target: T1, human NMUR2 receptor; assay: IP1 Gq HTRF assay, activation of human NMUR2 in human plasma; type: cell-based; parameters: expressed in transfected cells; host or cells: CHO-K1; conditions: CHO-K1 cells expressing human NMUR2, 100% human plasma; read-out: EC50 (hNMUR2) human plasma
Summary of the method: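 CHO-K1 cells stably expressing human NMUR2 exposed to peptide agonists (8-point dose-response) in 100% human plasma with 50 mM LiCl, 1% DMSO, for 1 h at 37° C. IP1 accumulation read by HTRF competition (665/620 nm ratio). EC50 from 4-parameter sigmoidal fit.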

In the case of CCCC[C@H](NC(=O)[C@H](CC(C)C)N(C)C(=O)[C@H](Cc1ccccc1)NC(=O)[C@H](Cc1ccc(O)cc1)NC(=O)CN1CCN(CCNC(=O)CN(C)C(=O)CN(C)C(=O)CN(C)C(=O)CN(C)C(=O)CN(C)C(=O)CN(C)C(=O)CN(C)C(=O)CN(C)C(=O)CN(C)C(=O)CN(C)C(=O)CN(C)C(=O)CN(C)C(=O)CN(C)C(=O)CN(C)C(=O)CN(C)C(=O)CC[C@H](NC(=O)CC[C@H](NC(=O)CC[C@H](NC(=O)CCCCCCCCCCCCCCCCC(=O)O)C(=O)O)C(=O)O)C(=O)O)CC1)C(=O)N[C@@H](CCN)C(=O)N1CCC[C@H]1C(=O)N[C@@H](CCCNC(=N)N)C(=O)NCC(N)=O [Compound 26, C18DA-gGlu3-Sar15-AEPipAc-Tyr-Phe-NMeLeu-Nle-Dbu-Pro-Arg-Gly-NH2] (HELM PEPTIDE1{[O=C(O)CCCCCCCCCCCCCCCCC(=O)[*:2]].[gGlu].[gGlu].[gGlu].[Sar].[Sar].[Sar].[Sar].[Sar].[Sar].[Sar].[Sar].[Sar].[Sar].[Sar].[Sar].[Sar].[Sar].[Sar].[O=C(CN1CCN(CCN[*:1])CC1)[*:2]].Y.F.[meL].[Nle].[Dab].P.R.G.[am]}$$$$V2.0), the “Acute Food Intake 24 h” value [1] is reported as 37% vehicle, the Ki [2] is reported as 48.1 nM and the EC50 [3] is reported as 3.9 nM.

In the case of CCCC[C@H](NC(=O)[C@H](CC(C)C)N(C)C(=O)[C@H](Cc1ccccc1)NC(=O)[C@H](Cc1ccc(O)cc1)NC(=O)CN1CCN(CCNC(=O)CN(C)C(=O)CN(C)C(=O)CN(C)C(=O)CN(C)C(=O)CN(C)C(=O)CN(C)C(=O)CN(C)C(=O)CN(C)C(=O)CN(C)C(=O)CN(C)C(=O)CN(C)C(=O)CN(C)C(=O)CN(C)C(=O)CN(C)C(=O)CN(C)C(=O)CC[C@H](NC(=O)CC[C@H](NC(=O)CC[C@H](NC(=O)CCCCCCCCCCCCCCCCCCC(=O)O)C(=O)O)C(=O)O)C(=O)O)CC1)C(=O)N[C@@H](CCCN)C(=O)N1CCC[C@H]1C(=O)N[C@@H](CCCNC(=N)N)C(=O)NCC(N)=O [Compound 1, C20DA-gGlu3-Sar15-AEPipAc-Tyr-Phe-NMeLeu-Nle-Orn-Pro-Arg-Gly-NH2] (HELM PEPTIDE1{[O=C(O)CCCCCCCCCCCCCCCCCCC(=O)[*:2]].[gGlu].[gGlu].[gGlu].[Sar].[Sar].[Sar].[Sar].[Sar].[Sar].[Sar].[Sar].[Sar].[Sar].[Sar].[Sar].[Sar].[Sar].[Sar].[O=C(CN1CCN(CCN[*:1])CC1)[*:2]].Y.F.[meL].[Nle].[Orn].P.R.G.[am]}$$$$V2.0), the “Acute Food Intake 24 h” value [1] is reported as 31% vehicle, the Ki [2] is reported as 8.6 nM and the EC50 [3] is reported as 2.8 nM.

With CCCC[C@H](NC(=O)[C@H](CC(C)C)N(C)C(=O)[C@H](Cc1ccccc1)NC(=O)[C@H](Cc1ccc(O)cc1)NC(=O)CN1CCN(CCNC(=O)CN(C)C(=O)CN(C)C(=O)CN(C)C(=O)CN(C)C(=O)CN(C)C(=O)CN(C)C(=O)CN(C)C(=O)CN(C)C(=O)CN(C)C(=O)CN(C)C(=O)CN(C)C(=O)CN(C)C(=O)CN(C)C(=O)CN(C)C(=O)CN(C)C(=O)CC[C@H](NC(=O)CC[C@H](NC(=O)CC[C@H](NC(=O)CCCCCCCCCCCCCCCCC(=O)O)C(=O)O)C(=O)O)C(=O)O)CC1)C(=O)N[C@@H](CCCNC(=N)N)C(=O)N1CCC[C@H]1C(=O)N[C@@H](CCCNC(=N)N)C(=O)NCC(N)=O [Compound 7, C18DA-gGlu3-Sar15-AEPipAc-Tyr-Phe-NMeLeu-Nle-Arg-Pro-Arg-Gly-NH2] (HELM PEPTIDE1{[O=C(O)CCCCCCCCCCCCCCCCC(=O)[*:2]].[gGlu].[gGlu].[gGlu].[Sar].[Sar].[Sar].[Sar].[Sar].[Sar].[Sar].[Sar].[Sar].[Sar].[Sar].[Sar].[Sar].[Sar].[Sar].[O=C(CN1CCN(CCN[*:1])CC1)[*:2]].Y.F.[meL].[Nle].R.P.R.G.[am]}$$$$V2.0) the “Acute Food Intake 24 h” value [1] was 46% vehicle, the Ki [2] was 22.8 nM and the EC50 [3] was 4.4 nM.

In the case of CCCC[C@H](NC(=O)[C@H](CC(C)C)N(C)C(=O)[C@H](Cc1ccccc1)NC(=O)[C@H](Cc1ccc(O)cc1)NC(=O)CN1CCN(CCNC(=O)CN(C)C(=O)CN(C)C(=O)CN(C)C(=O)CN(C)C(=O)CN(C)C(=O)CN(C)C(=O)CN(C)C(=O)CN(C)C(=O)CN(C)C(=O)CN(C)C(=O)CN(C)C(=O)CN(C)C(=O)CN(C)C(=O)CN(C)C(=O)CN(C)C(=O)CC[C@H](NC(=O)CC[C@H](NC(=O)CC[C@H](NC(=O)CCCCCCCCCCCCCCCCCCC(=O)O)C(=O)O)C(=O)O)C(=O)O)CC1)C(=O)N[C@@H](CCN)C(=O)N1CCC[C@H]1C(=O)N[C@@H](CCCNC(=N)N)C(=O)NCC(N)=O [Compound 42, C20DA-gGlu3-Sar15-AEPipAc-Tyr-Phe-NMeLeu-Nle-Dbu-Pro-Arg-Gly-NH2] (HELM PEPTIDE1{[O=C(O)CCCCCCCCCCCCCCCCCCC(=O)[*:2]].[gGlu].[gGlu].[gGlu].[Sar].[Sar].[Sar].[Sar].[Sar].[Sar].[Sar].[Sar].[Sar].[Sar].[Sar].[Sar].[Sar].[Sar].[Sar].[O=C(CN1CCN(CCN[*:1])CC1)[*:2]].Y.F.[meL].[Nle].[Dab].P.R.G.[am]}$$$$V2.0), the “Acute Food Intake 24 h” value [1] is reported as 41% vehicle, the Ki [2] is reported as 23.7 nM and the EC50 [3] is reported as 5.8 nM.

For CCCC[C@H](NC(=O)[C@H](CC(C)C)N(C)C(=O)[C@H](Cc1ccccc1)NC(=O)[C@H](Cc1ccc(O)cc1)NC(=O)CN1CCN(CCNC(=O)CN(C)C(=O)CN(C)C(=O)CN(C)C(=O)CN(C)C(=O)CN(C)C(=O)CN(C)C(=O)CN(C)C(=O)CN(C)C(=O)CN(C)C(=O)CN(C)C(=O)CN(C)C(=O)CN(C)C(=O)CN(C)C(=O)CN(C)C(=O)CN(C)C(=O)CC[C@H](NC(=O)CC[C@H](NC(=O)CC[C@H](NC(=O)CCCCCCCCCCCCCCCCCCC(=O)O)C(=O)O)C(=O)O)C(=O)O)CC1)C(=O)N[C@@H](CCN)C(=O)N(C)[C@@H](C)C(=O)N[C@@H](CCCNC(=N)N)C(=O)NCC(N)=O [Compound 43, C20DA-gGlu3-Sar15-AEPipAc-Tyr-Phe-NMeLeu-Nle-Dbu-NMeAla-Arg-Gly-NH2] (HELM PEPTIDE1{[O=C(O)CCCCCCCCCCCCCCCCCCC(=O)[*:2]].[gGlu].[gGlu].[gGlu].[Sar].[Sar].[Sar].[Sar].[Sar].[Sar].[Sar].[Sar].[Sar].[Sar].[Sar].[Sar].[Sar].[Sar].[Sar].[O=C(CN1CCN(CCN[*:1])CC1)[*:2]].Y.F.[meL].[Nle].[Dab].[meA].R.G.[am]}$$$$V2.0), the “Acute Food Intake 24 h” value [1] was 28% vehicle, the Ki [2] was 32.6 nM and the EC50 [3] was 10.1 nM.
